Tests used:
Format in all cases: physicochemical
[1] = BET surface area of API lots; conditions: API lot
Experimental: (§1) The following table illustrates the improved manufacturability properties of the crystalline API that is prepared according to the process of the present invention (lot “BS2008SA02”). The E1 lot was prepared according to the process described in WO2019245974.

[2] = Bulk density, tapped density and flowability of API; conditions: for Bulk Density / Tapped Density: API lot
Experimental: as §1

[3] = Particle size distribution by laser diffraction; conditions: API lot
Experimental: The particle size distribution of crystalline 3-((1R,3R)-1-(2,6-difluoro-4-((1-(3-fluoropropyl)azetidin-3-yl)amino)phenyl)-3-methyl-1,3,4,9-tetrahydro-2H-pyrido[3,4-b]indol-2-yl)-2,2-difluoropropan-1-ol tartrate of the invention was analyzed by laser diffraction as described in the USP <429> for Laser Diffraction Measurement of Particle Size and in the European Pharmacopoeia chapter 2.9.31 Particle size analysis by Laser Diffraction. Details of the apparatus used and measurements are given in Example 3.
For the measurement, a Malvern MasterSizer 3000 device from Malvern, UK, coupled with a liquid dispersion unit Hydro MV®, Malvern, UK was used. The crystalline Giredestrant tartrate as obtained from Example 1 or 2 was dispersed in dispersion medium consisting in technical grade n-heptane with 0.2% w/w.-% Span 85 (Sorbitane trioleate, e.g. Fluka/Sigma Cat. Nr. 85549 or equivalent) non-saturated.
Procedure: the crystalline Giredestrant tartrate is directly added in the Hydro MV dispersion unit and stirred at 2500 rpm achieving an appropriate optical concentration (between 5% and 25% optical concentrations).
Measurement: The test dispersion was measured and the cumulative volume dispersion was determined using the laser diffraction instrument mentioned above in accordance with the instruction manual. Measurements were performed after 2 minutes stirring time. The Fraunhofer approximation was used for the particle diameters calculations, Opaque Particle was used for the Particle type and General purpose was used for the Analysis model. The background and the measuring duration were set at 30 seconds.
Three independent samples were measured one time. The average particle size distribution in volume at the undersize values of 10%, 50% and 90% (×10, ×50 and ×90) percentiles were evaluated from the cumulative distribution.
as §1

[4] = Effect of compression on API degradation (HPLC); conditions: 60° C./11% RH, containers open, up to 4 weeks, tartrate
Experimental: The effect of compression on API degradation was investigated. Samples of uncompressed API (neat API powder as-is) and compressed API (compact) were aged at 60° C./11% RH with containers open for up to 1 month. Samples were assayed by HPLC (see Example 10). […] The following HPLC method was used to measure the RRCs described herein: [table]

[5] = Form B as prepared per WO2019245974

Row | Structure (SMILES) | BET SA [1] [m2/g] | Bulk Density [2] [g/mL] | Tapped Density [2] [g/mL] | D10 [3] [μm] | D50 [3] [μm] | D90 [3] [μm] | bulk density (in words) [2, 5] | flowability [2, 5] | growth of the impurity at RRT=0.58 ([4]; listed as compressed API) | growth of the impurity at RRT=0.58 ([4]; listed as uncompressed API)
1 | C[C@@H]1Cc2c([nH]c3ccccc23)[C@@H](c2c(F)cc(NC3CN(CCCF)C3)cc2F)N1CC(F)(F)CO.O=C(O)C(O)C(O)C(=O)O [711-005-5467-001 (E1)] | 2.9 | 0.31 | 0.41 | 2 | 8 | 27 |  |  |  | 
2 | C[C@@H]1Cc2c([nH]c3ccccc23)[C@@H](c2c(F)cc(NC3CN(CCCF)C3)cc2F)N1CC(F)(F)CO.O=C(O)C(O)C(O)C(=O)O [BS2008SA02] | 1.7 | 0.57 | 0.64 | 30 | 41 | 56 |  |  |  | 
3 | C[C@@H]1Cc2c([nH]c3ccccc23)[C@@H](c2c(F)cc(NC3CN(CCCF)C3)cc2F)N1CC(F)(F)CO.O=C(O)C(O)C(O)C(=O)O [giredestrant tartrate, 3-((1R,3R)-1-(2,6-difluoro-4-((1-(3-fluoropropyl)azetidin-3-yl)amino)phenyl)-3-methyl-1,3,4,9-tetrahydro-2H-pyrido[3,4-b]indol-2-yl)-2,2-difluoropropan-1-ol tartrate] |  |  |  |  |  |  | low bulk density | poor flowability | faster growth rate | growth of the impurity at RRT=0.58 was observed

— patent publication US20250282775A1, “SOLID FORM OF 3-((1R,3R)-1-(2,6-DIFLUORO-4-((1-(3- FLUOROPROPYL)AZETIDIN-3-YL)AMINO)PHENYL)-3-METHYL-1,3,4,9- TETRAHYDRO-2H-PYRIDO[3,4-B]INDOL-2-YL)-2,2-DIFLUOROPROPAN-1-OL TARTRATE” (Hoffmann-La Roche Inc., priority 2022, published 2025)
